From ChEMBL document CHEMBL1201862, “PubChem BioAssay data set” (2004)
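In this assay, cells in 96-well plates receive the compound at five concentrations for 48 hours. Endpoints are linearly interpolated between the surrounding concentrations. GI50: concentration for 50% inhibition of growth.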 The source made the active and inactive calls. Rule as the data show it: active = GI50 up to about 1.1 µM and inactive = higher.

What was measured:
Experiment in all cases: inhibition of tumour cell growth, NCI panel, 48 h
SF-295 = tested on: SF-295
SN12C = tested on: SN12C
NCI/ADR-RES = tested on: NCI/ADR-RES
HCT-15 = tested on: HCT-15
HCT-116 = tested on: HCT-116
SR = tested on: SR
SNB-19 = tested on: SNB-19
MDA-N = tested on: MDA-N
SF-268 = tested on: SF-268
OVCAR-4 = tested on: OVCAR-4
OVCAR-8 = tested on: OVCAR-8
DU-145 = tested on: DU-145
NCI-H522 = tested on: NCI-H522
SK-MEL-5 = tested on: SK-MEL-5
MCF7 = tested on: MCF7
NCI-H460 = tested on: NCI-H460
CCRF-CEM = tested on: CCRF-CEM
NCI-H23 = tested on: NCI-H23
U-251 = tested on: U-251
M14 = tested on: M14
SK-OV-3 = tested on: SK-OV-3
IGROV-1 = tested on: IGROV-1
MDA-MB-231 = tested on: MDA-MB-231
MDA-MB-435 = tested on: MDA-MB-435
CAKI-1 = tested on: CAKI-1
COLO 205 = tested on: COLO 205
UACC-62 = tested on: UACC-62
786-0 = tested on: 786-0
Hs-578T = tested on: Hs-578T
A498 = tested on: A498
SNB-75 = tested on: SNB-75
PC-3 = tested on: PC-3
RPMI-8226 = tested on: RPMI-8226
SK-MEL-28 = tested on: SK-MEL-28
OVCAR-5 = tested on: OVCAR-5
T47D = tested on: T47D
UACC-257 = tested on: UACC-257
A549 = tested on: A549
TK-10 = tested on: TK-10
SK-MEL-2 = tested on: SK-MEL-2
EKVX = tested on: EKVX
LOX IMVI = tested on: LOX IMVI
HT-29 = tested on: HT-29
UO-31 = tested on: UO-31
Malme-3M = tested on: Malme-3M
ACHN = tested on: ACHN
HCC 2998 = tested on: HCC 2998
KM12 = tested on: KM12
K562 = tested on: K562
MOLT-4 = tested on: MOLT-4
HOP-62 = tested on: HOP-62
NCI-H226 = tested on: NCI-H226
HOP-92 = tested on: HOP-92
HL-60 = tested on: HL-60
SF-539 = tested on: SF-539
SW-620 = tested on: SW-620
RXF 393 = tested on: RXF 393
OVCAR-3 = tested on: OVCAR-3

C#CC(O)/C=C/C(O)CCCC(O)CC#CC(O)C#CC(O)CCCC(O)/C=C/CCCCCC(=O)CCCCCCCCCCCCCC(O)C(O)C#CC(=O)O (stereo not given)
GI50 (SF-295): > 50 µM (inactive) | GI50 (SN12C): > 50 µM (inactive) | GI50 (NCI/ADR-RES): > 50 µM (inactive) | GI50 (HCT-15): > 50 µM | GI50 (HCT-116): > 50 µM (inactive) | GI50 (SR): 13.1 µM (inactive) | GI50 (SNB-19): > 50 µM (inactive) | GI50 (MDA-N): > 50 µM (inactive) | GI50 (SF-268): > 50 µM (inactive) | GI50 (OVCAR-4): 9.02 µM (inactive) | GI50 (OVCAR-8): > 50 µM (inactive) | GI50 (DU-145): > 50 µM (inactive) | GI50 (NCI-H522): 8.89 µM (inactive) | GI50 (SK-MEL-5): > 50 µM (inactive) | GI50 (MCF7): 14.3 µM (inactive) | GI50 (NCI-H460): > 50 µM (inactive) | GI50 (CCRF-CEM): 14.3 µM (inactive) | GI50 (NCI-H23): > 50 µM (inactive) | GI50 (U-251): > 50 µM (inactive) | GI50 (M14): > 50 µM (inactive) | GI50 (SK-OV-3): > 50 µM (inactive) | GI50 (IGROV-1): 13.7 µM (inactive) | GI50 (MDA-MB-231): 12.1 µM (inactive) | GI50 (MDA-MB-435): > 50 µM (inactive) | GI50 (CAKI-1): > 50 µM (inactive) | GI50 (COLO 205): > 50 µM (inactive) | GI50 (UACC-62): > 50 µM (inactive) | GI50 (786-0): > 50 µM (inactive) | GI50 (Hs-578T): 12.2 µM (inactive) | GI50 (A498): > 50 µM (inactive) | GI50 (SNB-75): 12.3 µM (inactive) | GI50 (PC-3): > 50 µM (inactive) | GI50 (RPMI-8226): 26.5 µM (inactive) | GI50 (SK-MEL-28): 12 µM (inactive) | GI50 (OVCAR-5): > 50 µM (inactive) | GI50 (T47D): 10.9 µM (inactive) | GI50 (UACC-257): > 50 µM (inactive) | GI50 (A549): > 50 µM (inactive) | GI50 (TK-10): > 50 µM (inactive) | GI50 (SK-MEL-2): 15 µM (inactive) | GI50 (EKVX): > 50 µM (inactive) | GI50 (LOX IMVI): 12.8 µM (inactive) | GI50 (HT-29): 19.3 µM (inactive) | GI50 (UO-31): > 50 µM (inactive) | GI50 (Malme-3M): > 50 µM (inactive) | GI50 (ACHN): > 50 µM (inactive) | GI50 (HCC 2998): > 50 µM (inactive) | GI50 (KM12): > 50 µM (inactive) | GI50 (K562): > 50 µM (inactive) | GI50 (MOLT-4): 14 µM (inactive) | GI50 (HOP-62): > 50 µM (inactive) | GI50 (NCI-H226): > 50 µM (inactive) | GI50 (HOP-92): 13.5 µM (inactive) | GI50 (HL-60): 26.8 µM (inactive)

c1cc(NC2=NCCO2)c2c(c1)OCO2
GI50 (SF-295): > 100 µM (inactive) | GI50 (SN12C): > 100 µM (inactive) | GI50 (NCI/ADR-RES): > 100 µM (inactive) | GI50 (HCT-15): > 100 µM | GI50 (SF-539): > 100 µM (inactive) | GI50 (HCT-116): > 100 µM (inactive) | GI50 (SR): > 100 µM (inactive) | GI50 (SNB-19): > 100 µM (inactive) | GI50 (MDA-N): > 100 µM (inactive) | GI50 (SF-268): > 100 µM (inactive) | GI50 (OVCAR-4): > 100 µM (inactive) | GI50 (OVCAR-8): > 100 µM (inactive) | GI50 (DU-145): > 100 µM (inactive) | GI50 (SW-620): > 100 µM (inactive) | GI50 (NCI-H522): > 100 µM (inactive) | GI50 (SK-MEL-5): > 100 µM (inactive) | GI50 (MCF7): > 100 µM (inactive) | GI50 (NCI-H460): > 100 µM (inactive) | GI50 (CCRF-CEM): > 100 µM (inactive) | GI50 (NCI-H23): > 100 µM (inactive) | GI50 (U-251): > 100 µM (inactive) | GI50 (M14): > 100 µM (inactive) | GI50 (SK-OV-3): > 100 µM (inactive) | GI50 (IGROV-1): > 100 µM (inactive) | GI50 (MDA-MB-231): > 100 µM (inactive) | GI50 (MDA-MB-435): > 100 µM (inactive) | GI50 (CAKI-1): > 100 µM (inactive) | GI50 (COLO 205): > 100 µM (inactive) | GI50 (UACC-62): > 100 µM (inactive) | GI50 (786-0): > 100 µM (inactive) | GI50 (Hs-578T): > 100 µM (inactive) | GI50 (A498): > 100 µM (inactive) | GI50 (PC-3): > 100 µM (inactive) | GI50 (RPMI-8226): > 100 µM (inactive) | GI50 (SK-MEL-28): > 100 µM (inactive) | GI50 (OVCAR-5): > 100 µM (inactive) | GI50 (T47D): > 100 µM (inactive) | GI50 (UACC-257): > 100 µM (inactive) | GI50 (A549): > 100 µM (inactive) | GI50 (RXF 393): > 100 µM (inactive) | GI50 (SK-MEL-2): > 100 µM (inactive) | GI50 (EKVX): > 100 µM (inactive) | GI50 (LOX IMVI): > 100 µM (inactive) | GI50 (HT-29): > 100 µM (inactive) | GI50 (UO-31): > 100 µM (inactive) | GI50 (Malme-3M): > 100 µM (inactive) | GI50 (ACHN): > 100 µM (inactive) | GI50 (HCC 2998): > 100 µM (inactive) | GI50 (KM12): 80.2 µM (inactive) | GI50 (K562): > 100 µM (inactive) | GI50 (OVCAR-3): > 100 µM (inactive) | GI50 (MOLT-4): > 100 µM (inactive) | GI50 (HOP-62): > 100 µM (inactive) | GI50 (NCI-H226): > 100 µM (inactive) | GI50 (HOP-92): > 100 µM (inactive) | GI50 (HL-60): > 100 µM (inactive)
